molecular target: T1, M1 receptor (Homo sapiens, UniProt P11229); test: DMR assay, antagonism of acetylcholine in CHO-K1 cells stably transfecting the M1 receptor; format: cell-based; conditions: CHO-K1-M1 cells, DMR, acetylcholine 1 μM, 1 h pretreatment, time point 5 min
T1 construct: expressed in transfected cells; host or cells: CHO-K1
T1 sequence (P11229 1-460): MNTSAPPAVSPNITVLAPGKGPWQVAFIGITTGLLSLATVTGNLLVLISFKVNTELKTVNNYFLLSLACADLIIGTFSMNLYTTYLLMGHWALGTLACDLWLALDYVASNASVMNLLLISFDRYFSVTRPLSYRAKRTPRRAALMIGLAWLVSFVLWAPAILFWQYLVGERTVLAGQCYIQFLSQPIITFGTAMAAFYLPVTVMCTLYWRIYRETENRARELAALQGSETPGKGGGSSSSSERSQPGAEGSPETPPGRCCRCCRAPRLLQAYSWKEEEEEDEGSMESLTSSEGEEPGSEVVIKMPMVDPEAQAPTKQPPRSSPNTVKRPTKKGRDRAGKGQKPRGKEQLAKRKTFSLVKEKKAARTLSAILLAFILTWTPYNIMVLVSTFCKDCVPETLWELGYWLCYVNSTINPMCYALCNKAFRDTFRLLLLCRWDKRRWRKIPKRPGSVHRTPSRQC
Protocol: (§1) The present invention relates to the antagonistic activity of the compound against the muscarinic receptor, which is primarily assessed by a cell-level dynamic mass redistribution (DMR) assay method. All tests are carried out on Epic platform, wherein the target model of the muscarinic receptor M1 is the CHO-K1 ceil model stably transfecting the M1 receptor, the target model of M3 is the HT-29 cell model endogenously highly expressing the M3 receptor, and the selected probe molecule is acetylcholine. Tire probe molecule acetylcholine is dissolved in water, while all other compounds are dissolved in DMSO.
(§2) The inoculated cell plate is placed in a cell incubator for culture for 12 h until the cell growth and fusion degree reaches about 95%, and the activity assay is carried out. The culture medium is sucked from the cultured ceils, the buffer salt specified by the test is added with a volume of 30 μL per orifice and is stabilized for 1 h. After the baseline is stable, a 2-min baseline is established, and different concentrations of compounds to be tested are added to test the cultured cells for 1 h. After the cells are pretreated with the compounds to be tested for 1 h, the 2-min baseline is re-established, and acetylcholine having a concentration of 1 μM is added to test the cultured cells for 1 h.

| SMILES | IC50 |
| --- | --- |
| Cc1ccc(O)c(C(CC2CCC[N+]2(C)C)c2ccccc2)c1 (stereo not drawn) [I-19, 2-[2-(2-hydroxy-5-methyl-phenyl)-phenethyl]-N,N-dimethylpyrrolidine Bromide] | 41 ± 9.2 nM |
| CCc1ccc(O)c(C(CC2CCC[N+]2(C)C)c2ccccc2)c1 (stereo not drawn) [I-20, 2-[2-(2-hydroxy-5-ethyl-phenyl)-phenethyl]-N,N-dimethylpyrrolidine Bromide] | 89 ± 7.3 nM |
| Cc1ccc(O)c(C(CC2CCCC[N+]2(C)C)c2ccsc2)c1 (stereo not drawn) [I-22, 2-[2-(3-thienyl)-2-(2-hydroxy-5-methyl-phenyl)-ethyl]-N,N-dimethylpiperidine Bromide] | 25.7 ± 0.8 nM |
| Cc1ccc(OC(=O)C(C)C)c(C(CC2CCCC[N+]2(C)C)c2ccccc2)c1 (stereo not drawn) [I-23, 2-[2-(2-isobutyryl estergroup-5-methyl-phenyl)-phenethyl]-N,N-dimethylpiperidine Bromide] | 2530 ± 480 nM |
| Cc1ccc(OC(=O)c2ccccc2)c(C(CC2CCCC[N+]2(C)C)c2ccccc2)c1 (stereo not drawn) [I-25, 2-[2-(2-benzoate Group-5-methyl-phenyl)-phenethyl]-N,N-dimethylpiperidine Bromide] | 997 ± 60 nM |
| CN1CCCCC1CC(c1ccccc1)c1ccccc1 (stereo not drawn) [II-1, 2-(2,2-Diphenylethyl)-N-Methylpiperidine] | 3130 ± 240 nM |
| CCCc1ccc(O)c(C(CC2CCCCN2C)c2ccccc2)c1 (stereo not drawn) [II-6] | 73.2 ± 12.5 nM |
| Cc1ccc(O)c(C(CC2CCCCN2C)c2ccccc2F)c1 (stereo not drawn) [II-7, 2-[2-(2-fluorophenyl)-2-(2-hydroxy-5-methyl-phenyl)ethyl]-N-methylpiperidine] | 230 ± 10 nM |
| COc1ccc(O)c(C(CC2CCCCN2C)c2ccccc2)c1 (stereo not drawn) [II-9, 2-[2-(2-hydroxy-5-methoxy-phenyl)-phenethyl]-N-methylpiperidine] | 73.2 ± 12.5 nM |
| CN1CCCCC1CC(c1ccccc1)c1cc(O)ccc1O (stereo not drawn) [II-11, 2-[2-(2,5-dihydroxy-phenyl)-phenethyl]-N-methylpiperidine] | 190 ± 35.8 nM |
| Cc1ccc(O)c(C(CC2CCCCN2C)c2ccc(Cl)cc2)c1 (stereo not drawn) [II-14, 2-[2-(4-chlorophenyl)-2-(2-hydroxy-5-methylphenyl)ethyl]-N-methylpiperidine] | 129 ± 29.8 nM |
| Cc1ccc(C(CC2CCCCN2C)c2cc(C)ccc2O)cc1 (stereo not drawn) [II-15, 2-[2-(4-tolyl)-2-(2-hydroxy-5-methyl-phenyl)-ethyl]-N-methylpiperidine] | 65.1 ± 11.7 nM |
| COc1ccccc1C(CC1CCCCN1C)c1ccccc1 (stereo not drawn) [II-17] | 6700 ± 810 nM |
| CCN1CCCCC1CC(c1ccccc1)c1cc(C)ccc1O (stereo not drawn) [II-18, 2-[2-(2-hydroxy-5-methyl-phenyl)-phenethyl]-N-ethylpiperidine] | 296 ± 62.9 nM |
| Cc1ccc(O)c(C(CC2CCCN2C)c2ccccc2)c1 (stereo not drawn) [II-19] | 74.5 ± 6 nM |
| CCc1ccc(O)c(C(CC2CCCN2C)c2ccccc2)c1 (stereo not drawn) [II-20] | 63 ± 7.5 nM |
| CN1CCCCC1CC(c1ccccc1)c1cccs1 (stereo not drawn) [II-21] | 3680 ± 810 nM |
| Cc1ccc(OC(=O)C(C)C)c(C(CC2CCCCN2C)c2ccccc2)c1 (stereo not drawn) [II-23, 2-[2-(2-isobutyryl estergroup-5-methyl-phenyl)-phenethyl]-N-methylpiperidine] | 1900 ± 500 nM |
| CC(=O)Oc1ccc(C)cc1C(CC1CCCCN1C)c1ccccc1 (stereo not drawn) [II-24, 2-[2-(2-acetategroup-5-methyl-phenyl)-phenethyl]-N-methylpiperidine] | 3340 ± 210 nM |

same assay, conditions: structure-activity comparison with parent compound

| SMILES | antagonistic activity against the M1 receptor, in words |
| --- | --- |
| Cc1ccc(OC(=O)C(C)C)c(C(CC2CCCCN2C)c2ccccc2)c1 (stereo not drawn) [II-23, 2-[2-(2-isobutyryl estergroup-5-methyl-phenyl)-phenethyl]-N-methylpiperidine] | the activity is greatly decreased |
| CC(=O)Oc1ccc(C)cc1C(CC1CCCCN1C)c1ccccc1 (stereo not drawn) [II-24, 2-[2-(2-acetategroup-5-methyl-phenyl)-phenethyl]-N-methylpiperidine] | the activity is greatly decreased |

molecular target: T2, M3 receptor (Homo sapiens, UniProt P20309); test: DMR assay, antagonism of acetylcholine in HT-29 cells endogenously expressing the M3 receptor; format: cell-based; conditions: HT-29 cells, DMR, acetylcholine 16 μM, 1 h pretreatment, time point 30 min
T2 construct: HT-29 cell model endogenously highly expressing the M3 receptor; endogenous in cells; host or cells: HT-29
T2 sequence (P20309 whole entry): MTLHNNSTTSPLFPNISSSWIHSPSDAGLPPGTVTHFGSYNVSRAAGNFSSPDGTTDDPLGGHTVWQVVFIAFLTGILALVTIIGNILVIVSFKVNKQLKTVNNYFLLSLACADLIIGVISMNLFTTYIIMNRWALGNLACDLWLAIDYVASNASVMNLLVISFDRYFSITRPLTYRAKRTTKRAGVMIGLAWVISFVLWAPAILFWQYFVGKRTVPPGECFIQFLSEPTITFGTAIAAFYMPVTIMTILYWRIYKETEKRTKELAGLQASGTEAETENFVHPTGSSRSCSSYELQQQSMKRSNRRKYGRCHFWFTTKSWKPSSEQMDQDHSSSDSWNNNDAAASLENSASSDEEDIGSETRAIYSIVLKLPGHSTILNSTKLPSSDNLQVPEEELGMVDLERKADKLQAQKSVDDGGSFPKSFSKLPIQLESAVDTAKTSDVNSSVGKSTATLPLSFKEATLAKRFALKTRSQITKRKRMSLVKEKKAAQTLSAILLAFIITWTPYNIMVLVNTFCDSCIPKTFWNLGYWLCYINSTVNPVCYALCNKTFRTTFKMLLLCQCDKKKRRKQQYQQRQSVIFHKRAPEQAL
Protocol: as §1
as §2, with “20” for “12”, “cells,” for “ceils,”, “h.” for “h. After the cells are pretreated with the compounds to be tested for 1 h, the 2-min baseline is re-established, and acetylcholine having a concentration of 1 μM is added to test the cultured cells for 1 h.”

| SMILES | IC50 |
| --- | --- |
| Cc1ccc(O)c(C(CC2CCC[N+]2(C)C)c2ccccc2)c1 (stereo not drawn) [I-19, 2-[2-(2-hydroxy-5-methyl-phenyl)-phenethyl]-N,N-dimethylpyrrolidine Bromide] | 29.9 ± 4.7 nM |
| CCc1ccc(O)c(C(CC2CCC[N+]2(C)C)c2ccccc2)c1 (stereo not drawn) [I-20, 2-[2-(2-hydroxy-5-ethyl-phenyl)-phenethyl]-N,N-dimethylpyrrolidine Bromide] | 53.2 ± 9.3 nM |
| Cc1ccc(O)c(C(CC2CCCC[N+]2(C)C)c2ccsc2)c1 (stereo not drawn) [I-22, 2-[2-(3-thienyl)-2-(2-hydroxy-5-methyl-phenyl)-ethyl]-N,N-dimethylpiperidine Bromide] | 10.7 ± 1.6 nM |
| Cc1ccc(OC(=O)C(C)C)c(C(CC2CCCC[N+]2(C)C)c2ccccc2)c1 (stereo not drawn) [I-23, 2-[2-(2-isobutyryl estergroup-5-methyl-phenyl)-phenethyl]-N,N-dimethylpiperidine Bromide] | 790 ± 75 nM |
| Cc1ccc(OC(=O)c2ccccc2)c(C(CC2CCCC[N+]2(C)C)c2ccccc2)c1 (stereo not drawn) [I-25, 2-[2-(2-benzoate Group-5-methyl-phenyl)-phenethyl]-N,N-dimethylpiperidine Bromide] | 2310 ± 600 nM |
| CN1CCCCC1CC(c1ccccc1)c1ccccc1 (stereo not drawn) [II-1, 2-(2,2-Diphenylethyl)-N-Methylpiperidine] | > 10000 nM |
| CCCc1ccc(O)c(C(CC2CCCCN2C)c2ccccc2)c1 (stereo not drawn) [II-6] | 110 ± 13.9 nM |
| Cc1ccc(O)c(C(CC2CCCCN2C)c2ccccc2F)c1 (stereo not drawn) [II-7, 2-[2-(2-fluorophenyl)-2-(2-hydroxy-5-methyl-phenyl)ethyl]-N-methylpiperidine] | 210 ± 30 nM |
| COc1ccc(O)c(C(CC2CCCCN2C)c2ccccc2)c1 (stereo not drawn) [II-9, 2-[2-(2-hydroxy-5-methoxy-phenyl)-phenethyl]-N-methylpiperidine] | 320 ± 41.4 nM |
| CN1CCCCC1CC(c1ccccc1)c1cc(O)ccc1O (stereo not drawn) [II-11, 2-[2-(2,5-dihydroxy-phenyl)-phenethyl]-N-methylpiperidine] | 370 ± 159 nM |
| Cc1ccc(O)c(C(CC2CCCCN2C)c2ccc(Cl)cc2)c1 (stereo not drawn) [II-14, 2-[2-(4-chlorophenyl)-2-(2-hydroxy-5-methylphenyl)ethyl]-N-methylpiperidine] | 149 ± 39.5 nM |
| Cc1ccc(C(CC2CCCCN2C)c2cc(C)ccc2O)cc1 (stereo not drawn) [II-15, 2-[2-(4-tolyl)-2-(2-hydroxy-5-methyl-phenyl)-ethyl]-N-methylpiperidine] | 112 ± 20 nM |
| COc1ccccc1C(CC1CCCCN1C)c1ccccc1 (stereo not drawn) [II-17] | 3420 ± 330 nM |
| CCN1CCCCC1CC(c1ccccc1)c1cc(C)ccc1O (stereo not drawn) [II-18, 2-[2-(2-hydroxy-5-methyl-phenyl)-phenethyl]-N-ethylpiperidine] | 239 ± 33.2 nM |
| Cc1ccc(O)c(C(CC2CCCN2C)c2ccccc2)c1 (stereo not drawn) [II-19] | 137 ± 22.9 nM |
| CCc1ccc(O)c(C(CC2CCCN2C)c2ccccc2)c1 (stereo not drawn) [II-20] | 258 ± 30.4 nM |
| CN1CCCCC1CC(c1ccccc1)c1cccs1 (stereo not drawn) [II-21] | 2420 ± 330 nM |
| Cc1ccc(OC(=O)C(C)C)c(C(CC2CCCCN2C)c2ccccc2)c1 (stereo not drawn) [II-23, 2-[2-(2-isobutyryl estergroup-5-methyl-phenyl)-phenethyl]-N-methylpiperidine] | 690 ± 160 nM |
| CC(=O)Oc1ccc(C)cc1C(CC1CCCCN1C)c1ccccc1 (stereo not drawn) [II-24, 2-[2-(2-acetategroup-5-methyl-phenyl)-phenethyl]-N-methylpiperidine] | 1210 ± 120 nM |

same assay, conditions: structure-activity comparison with parent compound

| SMILES | antagonistic activity against the M3 receptor, in words |
| --- | --- |
| Cc1ccc(OC(=O)C(C)C)c(C(CC2CCCCN2C)c2ccccc2)c1 (stereo not drawn) [II-23, 2-[2-(2-isobutyryl estergroup-5-methyl-phenyl)-phenethyl]-N-methylpiperidine] | the activity is greatly decreased |
| CC(=O)Oc1ccc(C)cc1C(CC1CCCCN1C)c1ccccc1 (stereo not drawn) [II-24, 2-[2-(2-acetategroup-5-methyl-phenyl)-phenethyl]-N-methylpiperidine] | the activity is greatly decreased |

Source: patent publication US11274079B2 (DALIAN INSTITUTE OF CHEMICAL PHYSICS, CHINESE ACADEMY OF …, priority 2018, dated 2022)
